Patent publication US10137122B2, “Kinase inhibitors and methods of use thereof” (priority 2012, dated 2018)
“Also recorded” adds a separate entry of the source. Where two headings read alike, the source gives them in different places.

Assays:
[1] = molecular target: CDK4 (Homo sapiens (Human), UniProt P11802); experiment: Single point inhibition at 10 μM (Carna), CDK4; format: biochemical
Experimental: (§1) Briefly, a selection of compounds was screened against a panel of kinases at a single concentration of 10 μM. […] This was completed utilizing one of two assays depending on the kinase being examined.
(§2) Test compounds were dissolved in and diluted with dimethylsulfoxide (DMSO) to generate a 100× sample solution. These were then diluted to 4× sample solutions in assay buffer to make the final test compound solutions. Reference compounds for assay control were prepared similarly.
(§3) A solution of IMAP binding reagent (IMAP Screening Express kit; Molecular Devices) (60 μL) was added to each well and incubated for 30 minutes.
(§4) A solution of termination buffer (QuickScout Screening assist MSA; Carna Biosciences) (60 μL) was added to each well. The entire reaction mixture was then applied to a LabChip3000 system (Caliper Life Science) and the product and substrate peptide peaks were separated and quantified.

[2] = test system: TCF/LEF reporter in HEK293-pBARL cells; details: read-out: TCF/LEF EC50
Experimental: (§5) HEK293-pBARL cells were derived from HEK293 cells and they stably expressed a firefly-luciferase reporter gene driven by a promoter containing 12 copies of TCF/LEF binding sequences. These cells were maintained in DMEM and supplemented with 10% FBS and 1% penicillin-streptomycin (Invitrogen). Reporter gene assays were conducted in anti-biotic free media. […] These cells also contained a renilla-luciferase reporter gene driven by the ubiquitous EF1α promoter as a control. HEK293-pBarl reporter cell lines were seeded into 384-well culture plates (Corning) at 6000 cells/well. 24 hours after plating, cells were treated overnight with relevant compounds and assayed using DualGlo assay kit (Promega). Luminescent intensities were read by EnVision (PerkinElmer, Waltham, Mass.). Firefly luciferase intensity is normalized by renilla luciferase intensity.
(§6) Cells were cultured in 384 well plates to appropriate density (40 μl total plating volume). 24 hours after plating, cells were treated with 100 nl compounds. 24 hours after incubation with compounds (48 hours after plating), assay reagents were prepared by mixing Luciferase Assay solution with Luciferase substrate and Stop & Glo solution to Stop & Glo substrate (extra reagents can be aliquoted and frozen for future use and are stable for at least one freeze/thaw cycle). […] The plate was spun down and 10 minutes were allowed for signal stabilization. Luciferase signal on the Perkin Elmer EnVision using the following parameters: Distance between plate & detector (mm)=0.2; Measurement time(s)=0.1; Glow (CT2) correction factor=0. Once the initial data is secure, a volume of Stop & Glo was added equal to each well equal to the volume of Luciferase reagent added above (If 10 μl Luciferase Reagent was added, 10 μl Stop & Glo was also added). The plate was spun down and 10 minutes were allowed for signal stabilization. The plate was read on the EnVision using the same parameters detailed above.

[3] = test system: panel of 311 kinases; experiment: Single point kinome-wide profile (Carna Biosciences); format: biochemical; details: for number of kinases inhibited greater than 50% at 10 μM: panel of 311 kinases
Experimental: as §1, §2, §3, §4

[4] = molecular target: T1, GSK3α (Homo sapiens (Human), UniProt P49840); experiment: biochemical; details: read-out: % Inhibition at 10 μM, GSK3α
T1 sequence (P49840 whole entry): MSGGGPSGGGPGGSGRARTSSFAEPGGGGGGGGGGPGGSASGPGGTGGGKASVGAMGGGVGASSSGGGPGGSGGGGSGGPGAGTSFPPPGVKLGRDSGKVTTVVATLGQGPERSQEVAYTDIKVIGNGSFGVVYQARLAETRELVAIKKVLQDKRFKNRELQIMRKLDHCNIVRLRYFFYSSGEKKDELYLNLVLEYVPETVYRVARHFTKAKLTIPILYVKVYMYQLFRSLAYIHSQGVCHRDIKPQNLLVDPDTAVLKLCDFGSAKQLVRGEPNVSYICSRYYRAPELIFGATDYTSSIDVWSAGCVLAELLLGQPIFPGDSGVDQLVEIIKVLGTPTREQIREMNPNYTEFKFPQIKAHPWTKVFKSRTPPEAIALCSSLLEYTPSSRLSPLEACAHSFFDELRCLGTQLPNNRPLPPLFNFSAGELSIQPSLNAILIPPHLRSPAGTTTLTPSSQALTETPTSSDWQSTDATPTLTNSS
Experimental: as §1, §2, §3, §4

[5] = molecular target: T2, GSK3β (Homo sapiens (Human), UniProt P49841); experiment: biochemical; details: read-out: % Inhibition at 10 μM, GSK3β
T2 sequence (P49841 whole entry): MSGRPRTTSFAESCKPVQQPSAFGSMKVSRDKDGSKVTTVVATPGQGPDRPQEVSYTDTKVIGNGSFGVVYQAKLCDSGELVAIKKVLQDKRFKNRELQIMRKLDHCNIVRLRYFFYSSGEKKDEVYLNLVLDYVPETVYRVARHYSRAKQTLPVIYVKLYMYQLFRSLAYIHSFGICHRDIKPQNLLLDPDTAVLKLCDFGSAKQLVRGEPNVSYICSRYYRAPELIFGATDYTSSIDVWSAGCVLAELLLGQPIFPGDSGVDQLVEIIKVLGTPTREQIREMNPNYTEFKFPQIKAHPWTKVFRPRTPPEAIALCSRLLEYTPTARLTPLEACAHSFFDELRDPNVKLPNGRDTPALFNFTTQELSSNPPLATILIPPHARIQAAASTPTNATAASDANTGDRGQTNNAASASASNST
Experimental: as §1, §2, §3, §4

[6] = M (mouse)
[7] = molecular target: BRAF (Homo sapiens (Human), UniProt P15056); experiment: Single point inhibition at 10 μM (Carna), BRAF; format: biochemical
Chain of BRAF (P15056 whole entry): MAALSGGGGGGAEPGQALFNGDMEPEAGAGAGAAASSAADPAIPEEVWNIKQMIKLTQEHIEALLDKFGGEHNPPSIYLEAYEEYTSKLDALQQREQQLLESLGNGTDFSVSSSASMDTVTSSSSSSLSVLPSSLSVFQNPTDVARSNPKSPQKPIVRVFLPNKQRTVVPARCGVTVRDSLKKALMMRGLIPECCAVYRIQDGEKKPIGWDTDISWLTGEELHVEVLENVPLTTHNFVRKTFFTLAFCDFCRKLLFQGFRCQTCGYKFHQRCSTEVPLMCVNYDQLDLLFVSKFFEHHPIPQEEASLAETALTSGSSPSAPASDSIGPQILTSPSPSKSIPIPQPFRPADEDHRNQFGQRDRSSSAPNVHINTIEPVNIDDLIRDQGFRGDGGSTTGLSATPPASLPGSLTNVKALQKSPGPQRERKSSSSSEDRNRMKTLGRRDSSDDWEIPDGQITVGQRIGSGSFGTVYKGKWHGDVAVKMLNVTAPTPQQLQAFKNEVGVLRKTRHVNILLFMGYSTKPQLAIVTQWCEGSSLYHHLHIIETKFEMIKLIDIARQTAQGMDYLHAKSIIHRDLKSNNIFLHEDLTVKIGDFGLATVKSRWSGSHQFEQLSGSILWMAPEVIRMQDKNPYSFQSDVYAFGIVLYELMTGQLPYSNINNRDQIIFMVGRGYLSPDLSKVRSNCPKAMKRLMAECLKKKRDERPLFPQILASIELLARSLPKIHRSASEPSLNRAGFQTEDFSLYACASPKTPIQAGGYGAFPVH
Experimental: as §1, §2, §3, §4

[8] = molecular target: MAP2K6 (Homo sapiens (Human), UniProt P52564); experiment: Single point inhibition at 10 μM (Carna), MAP2K6; format: biochemical
Experimental: (§7) Single Point Inhibitory Analysis of Selected Compounds (Carna Biosciences)
as §1, §2, §3, §4

[9] = PBS stability; format: physicochemical; details: 48 hours of incubation, acetonitrile recovery
Experimental: Stability was determined in the presence of PBS pH 7.4 with 0.1% DMSO. Each compound was prepared in duplicate on six separate plates and allowed to equilibrate at room temperature with a 250 rpm orbital shake for 48 hours. One plate was removed at each time point (0, 2, 4, 8, 24, and 48 hours). […] Additionally, to the remaining material at each time point, acetonitrile was added to force dissolution of compound (to test for recovery of compound). An aliquot of this was also analyzed by UPLC-MS.

[10] = test system: TCF/LEF reporter in HEK293-pBARL cells; experiment: cells; details: Homo sapiens
Experimental: as §5, §6

[11] = molecular target: Erk5 (Homo sapiens (Human), UniProt Q13164); experiment: Single point inhibition at 10 μM (Carna), Erk5; format: biochemical
Chain of Erk5 (Q13164 whole entry): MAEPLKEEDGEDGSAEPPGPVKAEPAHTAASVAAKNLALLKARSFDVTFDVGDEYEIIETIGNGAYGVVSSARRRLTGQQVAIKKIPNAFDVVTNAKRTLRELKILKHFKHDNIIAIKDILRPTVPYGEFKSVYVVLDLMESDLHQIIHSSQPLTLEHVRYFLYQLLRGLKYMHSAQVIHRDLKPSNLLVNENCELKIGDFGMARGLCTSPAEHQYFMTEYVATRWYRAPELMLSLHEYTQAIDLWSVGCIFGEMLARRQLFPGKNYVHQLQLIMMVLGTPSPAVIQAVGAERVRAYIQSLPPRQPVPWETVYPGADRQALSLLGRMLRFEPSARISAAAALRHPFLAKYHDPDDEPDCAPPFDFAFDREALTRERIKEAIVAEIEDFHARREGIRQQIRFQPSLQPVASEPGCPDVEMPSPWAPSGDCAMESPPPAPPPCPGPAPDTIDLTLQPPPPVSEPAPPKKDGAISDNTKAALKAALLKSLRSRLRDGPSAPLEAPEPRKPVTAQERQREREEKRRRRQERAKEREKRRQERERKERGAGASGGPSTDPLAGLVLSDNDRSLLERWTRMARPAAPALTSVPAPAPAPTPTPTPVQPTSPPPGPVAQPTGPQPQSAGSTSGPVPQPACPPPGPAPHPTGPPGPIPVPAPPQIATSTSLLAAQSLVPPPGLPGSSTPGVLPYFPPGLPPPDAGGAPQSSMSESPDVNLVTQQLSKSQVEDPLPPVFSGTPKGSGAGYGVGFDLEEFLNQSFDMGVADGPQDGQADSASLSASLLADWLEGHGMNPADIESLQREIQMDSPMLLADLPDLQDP
Experimental: as §7, §1, §2, §3, §4

[12] = test system: β-catenin nuclear translocation in U2-OS cells; experiment: β-Catenin nuclear localization assay; format: cell-based; details: Homo sapiens, U2OS, read-out: beta-Catenin translocation EC50
Experimental: β-Catenin Nuclear Localization Assay
U2-OS cells stably expressing two complimentary β-galactosidase fragments (one part on β-Catenin and the other constitutively expressed in the cell nucleus) were maintained in DMEM F12 supplemented with 10% FBS. When β-catenin translocates to the nucleus, the complimentary fragments form a complete β-galactosidase, the amount of which is then quantified by β-galactosidase activity (DiscoveRx). Cells were seeded in a 384-well CulturPlate (Perkin Elmer, Boston, Mass.) with 10,000 per well in 20 μL DMEM F12 containing 10% FCS, 100 U/ml penicillin and 100 μg/mL streptomycin. After overnight incubation at 37° C., cells were stimulated with 100 nL test compound/well and then returned to the incubator for 6 h. Cells were disrupted using 12 μL substrate-containing lysis buffer from the PathHunter Detection Kit in the formulation specified by the supplier (DiscoveRx). Plates were incubated in the dark for 1 h at room temperature before measurement of β-galactosidase activity (luminescence) on an EnVision plate reader (PerkinElmer, Waltham, Mass.).

[13] = molecular target: CDK5 (Homo sapiens (Human), UniProt Q00535); experiment: Single point inhibition at 10 μM (Carna), CDK5; format: biochemical
Experimental: as §7, §1, §2, §3, §4

[14] = molecular target: LIMK1 (Homo sapiens (Human), UniProt P53667); experiment: Single point inhibition at 10 μM (Carna), LIMK1; format: biochemical
Experimental: as §1, §2, §3, §4

[15] = molecular target: CK1g1 (Homo sapiens (Human), UniProt Q9HCP0); experiment: Single point inhibition at 10 μM (Carna), CK1g1; format: biochemical
Experimental: as §1, §2, §3, §4

[16] = molecular target: HIPK4 (Homo sapiens (Human), UniProt Q8NE63); experiment: Single point inhibition at 10 μM (Carna), HIPK4; format: biochemical
Chain of HIPK4 (Q8NE63 whole entry): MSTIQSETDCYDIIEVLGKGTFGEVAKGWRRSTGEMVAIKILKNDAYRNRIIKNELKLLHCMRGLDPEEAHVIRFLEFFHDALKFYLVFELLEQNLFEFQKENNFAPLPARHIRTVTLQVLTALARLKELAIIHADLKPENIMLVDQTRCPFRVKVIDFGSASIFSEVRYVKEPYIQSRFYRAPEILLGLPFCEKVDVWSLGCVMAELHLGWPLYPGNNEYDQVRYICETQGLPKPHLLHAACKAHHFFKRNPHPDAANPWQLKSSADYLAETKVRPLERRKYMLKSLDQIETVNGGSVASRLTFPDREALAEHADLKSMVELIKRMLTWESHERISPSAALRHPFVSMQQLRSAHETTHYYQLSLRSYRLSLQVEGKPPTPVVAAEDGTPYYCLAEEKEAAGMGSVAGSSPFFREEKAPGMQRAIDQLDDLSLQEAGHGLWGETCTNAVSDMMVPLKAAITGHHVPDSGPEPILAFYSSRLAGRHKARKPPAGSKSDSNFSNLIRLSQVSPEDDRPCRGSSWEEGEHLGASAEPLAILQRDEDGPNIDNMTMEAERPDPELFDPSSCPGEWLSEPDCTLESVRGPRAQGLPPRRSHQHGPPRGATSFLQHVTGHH
Experimental: as §7, §1, §2, §3, §4

[17] = molecular target: PLK1 (Homo sapiens (Human), UniProt P53350); experiment: Single point inhibition at 10 μM (Carna), PLK1; format: biochemical
Experimental: as §7, §1, §2, §3, §4

[18] = molecular target: CK1g3 (Homo sapiens (Human), UniProt Q9Y6M4); experiment: Single point inhibition at 10 μM (Carna), CK1g3; format: biochemical
Chain of CK1g3 (Q9Y6M4 whole entry): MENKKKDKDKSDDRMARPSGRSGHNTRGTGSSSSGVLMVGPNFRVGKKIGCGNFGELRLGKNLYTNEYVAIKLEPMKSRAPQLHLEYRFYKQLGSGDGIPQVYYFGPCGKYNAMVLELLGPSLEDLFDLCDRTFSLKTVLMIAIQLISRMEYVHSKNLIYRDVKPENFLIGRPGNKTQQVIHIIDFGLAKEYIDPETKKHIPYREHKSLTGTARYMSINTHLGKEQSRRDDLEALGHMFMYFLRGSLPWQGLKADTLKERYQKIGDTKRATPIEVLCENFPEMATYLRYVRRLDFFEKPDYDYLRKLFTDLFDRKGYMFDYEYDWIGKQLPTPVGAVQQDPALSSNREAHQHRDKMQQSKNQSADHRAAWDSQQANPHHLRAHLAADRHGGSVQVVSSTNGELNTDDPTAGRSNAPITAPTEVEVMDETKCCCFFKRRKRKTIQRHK
Experimental: as §1, §2, §3, §4

[19] = GSH stability; format: in vitro ADME; details: glutathione, 48 hours
Experimental: Stability was determined in the presence of PBS pH […] and 50 μM glutathione with 0.1% DMSO. Each compound was prepared in duplicate on six separate plates and allowed to equilibrate at room temperature with a 250 rpm orbital shake for 48 hours. One plate was removed at each time point (0, 2, 4, 8, 24, and 48 hours). […] Additionally, to the remaining material at each time point, acetonitrile was added to force dissolution of compound (to test for recovery of compound). An aliquot of this was also analyzed by UPLC-MS.

[20] = molecular target: MLK3 (Homo sapiens (Human), UniProt Q16584); experiment: Single point inhibition at 10 μM (Carna), MLK3; format: biochemical
Chain of MLK3 (Q16584 whole entry): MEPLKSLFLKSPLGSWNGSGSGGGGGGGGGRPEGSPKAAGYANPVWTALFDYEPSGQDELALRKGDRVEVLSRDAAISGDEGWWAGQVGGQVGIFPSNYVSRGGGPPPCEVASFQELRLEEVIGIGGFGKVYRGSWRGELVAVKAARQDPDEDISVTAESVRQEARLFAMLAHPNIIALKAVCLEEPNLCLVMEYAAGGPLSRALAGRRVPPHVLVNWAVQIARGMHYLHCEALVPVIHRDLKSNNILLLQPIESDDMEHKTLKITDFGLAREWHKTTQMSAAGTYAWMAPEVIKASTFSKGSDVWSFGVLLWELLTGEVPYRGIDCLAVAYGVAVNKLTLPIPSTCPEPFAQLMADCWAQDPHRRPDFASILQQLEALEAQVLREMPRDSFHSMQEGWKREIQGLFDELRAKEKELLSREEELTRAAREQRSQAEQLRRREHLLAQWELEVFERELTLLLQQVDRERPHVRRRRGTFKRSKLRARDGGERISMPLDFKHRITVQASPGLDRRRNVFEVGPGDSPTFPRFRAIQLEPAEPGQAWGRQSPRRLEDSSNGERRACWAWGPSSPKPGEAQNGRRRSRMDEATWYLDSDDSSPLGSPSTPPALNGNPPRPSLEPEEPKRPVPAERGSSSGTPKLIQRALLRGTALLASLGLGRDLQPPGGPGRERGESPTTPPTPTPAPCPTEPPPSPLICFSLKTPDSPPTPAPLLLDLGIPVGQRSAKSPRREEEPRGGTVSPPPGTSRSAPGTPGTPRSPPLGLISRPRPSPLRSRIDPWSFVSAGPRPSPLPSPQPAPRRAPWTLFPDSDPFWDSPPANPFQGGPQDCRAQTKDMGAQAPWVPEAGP
Experimental: as §7, §1, §2, §3, §4

[21] = molecular target: PKR (Homo sapiens (Human), UniProt P19525); experiment: Single point inhibition at 10 μM (Carna), PKR; format: biochemical
Chain of PKR (P19525 whole entry): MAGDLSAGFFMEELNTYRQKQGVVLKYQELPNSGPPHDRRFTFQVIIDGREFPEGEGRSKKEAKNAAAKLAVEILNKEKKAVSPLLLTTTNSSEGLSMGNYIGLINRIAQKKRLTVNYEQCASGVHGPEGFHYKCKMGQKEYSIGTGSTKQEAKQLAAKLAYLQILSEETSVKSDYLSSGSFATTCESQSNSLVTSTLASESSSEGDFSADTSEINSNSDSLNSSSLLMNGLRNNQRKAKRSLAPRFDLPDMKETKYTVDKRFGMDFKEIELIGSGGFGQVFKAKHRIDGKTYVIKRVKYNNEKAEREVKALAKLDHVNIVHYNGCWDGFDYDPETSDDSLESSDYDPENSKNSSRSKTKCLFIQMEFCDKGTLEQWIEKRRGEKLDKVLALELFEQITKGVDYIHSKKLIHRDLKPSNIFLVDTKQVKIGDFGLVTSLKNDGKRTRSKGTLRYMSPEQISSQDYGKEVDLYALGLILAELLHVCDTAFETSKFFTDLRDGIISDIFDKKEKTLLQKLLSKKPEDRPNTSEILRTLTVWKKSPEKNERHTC
Experimental: as §7, §1, §2, §3, §4

[22] = molecular target: MELK (Homo sapiens (Human), UniProt Q14680); experiment: Single point inhibition at 10 μM (Carna), MELK; format: biochemical
Experimental: as §7, §1, §2, §3, §4

[23] = test system: phospho-Tau (Ser199) in SH-SY5Y cells; experiment: Tau phosphorylation assay (phospho-Tau Ser199 ELISA); format: cell-based, human; details: Homo sapiens; for EC50: read-out: p-Tau Inhibition ELISA EC50 SH-SY5Y
Experimental: Tau Phosphorylation and Total Tau Assay
SH-SY5Y cells were maintained in DMEM supplemented with 10% heat-inactivated FBS and 1% penicillin-streptomycin (Invitrogen) unless otherwise stated. ELISA kits for phospho-Tau (Ser199) and total Tau detection were purchased from Invitrogen (KHB0041, and KHB7041 respectively). Briefly, SH-SY5Y cells were seeded at 50,000 cells/200 μL/well in 96 well plates and after overnight incubation, treated with various doses of chemical compounds at 0.2 μL/well. The next day cells were washed with PBS twice before being lysed in 100 μL Lysis buffer/well. 50 μL of cell lysate of each sample was transferred to an ELISA vial coated with the capture antibody, and the mixture was incubated at room temperature for 2 hours, before the supernatant was aspired, and each vial washed four times. 100 μL of detection antibody was then added to each well, incubated for 1 hour, and then washed four times. […] Data were scaled using the positive and neutral controls and fitted for IC50.
A standard protocol using an immunoassay kit to quantify total Tau protein and phospho-Tau (Ser199) protein in SH-SY5Y human neuroblastoma cells was employed. Human Tau (Total) ELISA kit (#KHB0041) and human phosphor-Tau (Ser199) ELISA kit were purchased from Invitrogen (#KHB7041)
50,000 cells were seeded in 200 μl per well in cell culture media (250,000 cells/ml). Cells were incubated overnight @37° C. Cells were induced with appropriate doses of inhibitors and incubated for approximately 24 hrs @37° C. Cell lysates were harvested by washing cells once with cold PBS and adding 100 μl cold lysis buffer and pipette up and down vigorously. Lysate was transferred to 96 well PCR plate and centrifuged at 4,000 rpm for 20 minutes at 4° C.
Well strips were warmed and inserted into the frame. 100μ of standard diluent buffer were loaded into ZERO wells, and 100 ul of each standard concentrations (both total Tau and pTau) were loaded into wells in duplicate. Samples were loaded to each well that would be analyzed for total Tau, 85 μl standard diluent buffer and 15 μl cell lysate were added. To each well that will be analyzed for pTau (Ser199) 50 μl standard diluent buffer+50 μl cell lysate were added. Plates were tapped gently on the side to mix. Certain wells were left empty for chromogen blank. Plates were covered and incubated for 2 hours at room temperature. Wells were aspirated 4 times (400 μl diluted wash buffer, left for 30 seconds, aspirated all wells; alternatively used automated plate washer and programmed in a 30 second hold between each cycle). 100 μl of detection antibody solution were added to each well except chromogen blanks. Anti-total Tau was added to wells being analyzed for total Tau, anti-pTau (Ser199) was added to wells being analyzed for pTau (Ser199), and plates were tapped gently on the side to mix. Plates were covered and incubated for 1 hour at room temperature, then wells were aspirated and washed 4 times as described above. 100 μl of anti-rabbit IgG HRP working solution (prepared ahead) were added to each well except chromogen blanks, and plates were covered and incubated for 30 minutes at room temperature, then wells were aspirated and washed 4 times as described above. 100 μl of stabilized chromogen were added to each well (the liquid turned blue). Plates were incubates for 30 minutes at room temperature in the dark, then 100 μl of stop solution were added to each well, and plates were tapped gently on the side to mix. Absorbance of each well was read at 450 nm (within 2 hours of adding stop solution).

[24] = molecular target: RSK3 (Homo sapiens (Human), UniProt Q15349); experiment: Single point inhibition at 10 μM (Carna), RSK3; format: biochemical
Experimental: as §7, §1, §2, §3, §4

[25] = molecular target: DYKR1B (Homo sapiens (Human), UniProt Q9Y463); experiment: Single point inhibition at 10 μM (Carna), DYKR1B; format: biochemical
Experimental: as §1, §2, §3, §4

[26] = molecular target: CDK9 (Homo sapiens (Human), UniProt P50750); experiment: Single point inhibition at 10 μM (Carna), CDK9; format: biochemical
Experimental: as §7, §1, §2, §3, §4

[27] = molecular target: T1, GSK3α
Experimental: GSK3β Microfluidic Mobility-Shift Assay
(§8) Reactions were terminated by the addition of 10 mM EDTA. Substrate and product were separated electrophoretically and fluorescence intensity of the substrate and product was determined by Labchip EZ Reader II (Caliper Life Sciences, MA). The kinase activity was measured as percent conversion. The reactions were performed in duplicate for each sample. […] The results were analyzed by Genedata Assay Analyzer. The percent inhibition was plotted against the compound concentration and the IC50 value was determined from the logistic dose-response curve fitting.

[28] = molecular target: T2, GSK3β
Experimental: GSK3β Microfluidic Mobility-Shift Assay
as §8

[29] = molecular target: T2, GSK3β; remark: listed apart in the source
[30] = test system: human iPSC-NPCs with TCF/LEF-luciferase reporter; experiment: Neurogenesis assay; format: cell-based; details: 24-h treatment
From the text: See, e.g., Zhao et al., J Biomol Screen. 2012 October; 17(9):1252-63.

[31] = test system: amphetamine-induced hyperactivity; experiment: Amphetamine-induced hyperactivity (AIH) in vivo; details: mice, vs vehicle
[32] = test system: AML cell lines; experiment: AML cell morphology, May-Grunwald Giemsa staining; format: cell-based; details: three days after treatment, vs vehicle
Experimental: Compound 70 Induces Morphological Changes in AML Cell Lines Consistent with Myeloid Differentiation
On day three post-chemical treatment, cytospin preparations were performed. Changes in cellular morphology were evaluated by May-Grunwald Giemsa staining (Sigma Aldrich). Images were acquired by light microscopy at 400× magnification.

[33] = test system: HL-60 and U937 cells; experiment: GE-HTS 32-gene myeloid differentiation signature; format: cell-based; details: three days treatment
Experimental: HL-60 and U937 cells were treated for three days with compound 70 or vehicle. A 32-gene differentiation signature was quantified by the LMA/bead-based approach and a Weighted Summed Score (Differentiation Score) calculated for all genes was determined for each condition. Error bars denote the mean±SD of 8 replicates and statistical significance of the differences between these differentiation scores was derived using a one-way ANOVA with a Bonferroni correction.
Compound 70 Induces a Gene Expression Signature in AML Cell Lines Consistent with Myeloid Differentiation […]

[34] = Pharmacokinetics and brain distribution in mice; format: in vivo; details: single i.p. dose 30 mg/kg, male C57BL/6 mice
[35] = molecular target: CDK2/CycE1 (Homo sapiens (Human), UniProt P24941); experiment: Single point inhibition at 10 μM (Carna), CDK2/CycE1; format: biochemical
Experimental: as §1, §2, §3, §4

[36] = molecular target: CLK1 (Homo sapiens (Human), UniProt P49759); experiment: Single point inhibition at 10 μM (kinase screen), CLK1; format: biochemical
Experimental: as §1, §2, §3, §4

[37] = molecular target: CDK2/CycA2 (Homo sapiens (Human), UniProt P24941); experiment: Single point inhibition at 10 μM (Carna), CDK2/CycA2; format: biochemical
Experimental: as §1, §2, §3, §4

[38] = molecular target: CDK2 (Homo sapiens (Human), UniProt P24941); experiment: Single point inhibition at 10 μM (kinase screen), CDK2; format: biochemical
Experimental: as §1, §2, §3, §4

[39] = test system: GSK3; details: read-out: GSK3 IC50 of lithium; cited from earlier work
[40] = HEK293, read-out: TCF/LEF EC50 (μM)

| Structure (SMILES) | inhibition at 10 µM [1] | EC50 [2] | inhibition at 10 µM [4] | inhibition at 10 µM [5] | Microsomal Stability [6] | inhibition at 10 µM [7] | inhibition at 10 µM [8] | inhibition at 10 µM [11] | EC50 [12] | inhibition at 10 µM [13] | inhibition at 10 µM [15] | inhibition at 10 µM [16] | inhibition at 10 µM [17] | inhibition at 10 µM [18] | inhibition at 10 µM [20] | inhibition at 10 µM [21] | inhibition at 10 µM [22] | inhibition at 10 µM [24] | inhibition at 10 µM [25] | number of kinases inhibited greater than 50% at 10 μM [3] | also measured |
| --- | --- | --- | --- | --- | --- | --- | --- | --- | --- | --- | --- | --- | --- | --- | --- | --- | --- | --- | --- | --- | --- |
| COc1ccccc1[C@@H]1C2=C(CC(C)(C)CC2=O)Nc2n[nH]c(C(F)(F)F)c21 [Compound 54, (R)-4-(2-methoxyphenyl)-7,7-dimethyl-3-(trifluoromethyl)-6,7,8,9-tetrahydro-2H-pyrazolo[3,4-b]quinolin-5(4H)-one] | 19% | 4.8 µM | 99.9% | 99.9% | M: 0% | 10.8% | 0.1% | 0.6% | 5 µM | 86.7% | 0.5% | 3.2% | 21.3% | 3.2% | 18.8% | 0.1% | 4.5% | 0.1% | 52.5% | – | % of the kinome (311 kinases) inhibited ([3]; 10 μM, 311 kinases): 2.6%; PBS stability, % still present [9]: more than 95%; EC50 ([10]; HEK293, read-out: TCF/LEF EC50 (μM), HEK293 reporter cells): 5 µM; inhibition at 10 µM [14]: 6.7%; GSH stability, % remaining [19]: 99%; EC50 [23]: 1.7 µM; inhibition at 10 µM [26]: 20.5% |
| CC1(C)CC(=O)C2=C(C1)Nc1n[nH]c(C(F)(F)F)c1[C@@H]2c1c(F)cccc1F [Compound 59] | – | > 25 µM | – | – | – | – | – | – | – | – | – | – | – | – | – | – | – | – | – | – | IC50 [27]: 0.101 to 1 µM; IC50 [28]: < 0.1 µM; IC50 [29]: < 0.1 µM |
| COc1ccccc1[C@@H]1C2=C(CC(C)(C)CC2=O)Nc2n[nH]c(C)c21 [Compound 22, 4-(2-methoxyphenyl)-3,7,7-trimethyl-6,7,8,9-tetrahydro-1H-pyrazolo[3,4-b]quinolin-5(4H)-one] | – | – | – | – | – | – | – | – | – | – | – | – | – | – | – | – | – | – | – | 8 kinases | neurogenesis [30]: promoted neurogenesis; effect on amphetamine-induced hyperactivity, ICV injection ([31]; intracerebroventricular): attenuate amphetamine-induced hyperactivity |
| CC1(C)CC(=O)C2=C(C1)Nc1n[nH]c(C(F)(F)F)c1C2(C)c1ccccc1 (single isomer, unassigned) [Compound 70, 4,7,7-trimethyl-4-phenyl-3-(trifluoromethyl)-6,7,8,9-tetrahydro-2H-pyrazolo[3,4-b]quinolin-5(4H)-one] | – | – | – | – | – | – | – | – | – | – | – | – | – | – | – | – | – | – | – | – | morphological evidence of AML differentiation [32]: induces morphological evidence of AML (acute myeloid leukemia) differentiation; morphological evidence of AML differentiation ([32]; listed as compound 70): demonstrated cellular differentiation; AML differentiation by GE-HTS signature [33]: induced a gene expression signature in AML cell lines consistent with myeloid differentiation; also recorded: induces AML (acute myeloid leukemia) differentiation by GE-HTS signature; EC50 [10, 40]: 1.86 µM; effect on amphetamine-induced hyperactivity, intraperitoneal injection ([31]; systemic i.p.): attenuate amphetamine-induced hyperactivity; pharmacokinetic profile (systemic exposure and brain distribution) compared to CHIR99021 [34]: improved pharmacokinetic profile; EC50 ([23]; SH-SY5Y): 0.819 µM |
| Cc1c[nH]c(-c2cnc(NCCNc3ccc(C#N)cn3)nc2-c2ccc(Cl)cc2Cl)n1 [CHIR99021, reference compound] | 65.3% | – | 99.9% | 99.9% | M: 4% | 53.8% | 65.3% | > 50% | 10 µM | > 50% | 85.8% | 55.5% | > 50% | 70.5% | 52.7% | 57.1% | 53.5% | 53.6% | 70.5% | 21 kinases | inhibition at 10 µM [35]: 67.2%; inhibition at 10 µM [36]: > 50%; inhibition at 10 µM [37]: 79.3%; inhibition at 10 µM [38]: > 50%; EC50 [10, 40]: 6 µM; IC50 ([23]; read-out: Phospho-Tau ELISA in SHSY5Y Cells (IC50)): 0.44 µM |
| [Li+] [Li^+] | – | – | – | – | – | – | – | – | – | – | – | – | – | – | – | – | – | – | – | – | IC50 [39]: 2000 µM |
